Data taken from ChEMBL document CHEMBL1158793, “Taxezopidines M and N, taxoids from the Japanese yew, Taxus cuspidata” (J Nat Prod, 2005).
Active and inactive are the calls of the source. The calls are words filed in the database; no cut-off is given here.

Legend:
[1] = Inhibition of CaCl2-induced microtubule depolymerization at 5 uM by spectrophotometry
L1210 = assay: Cytotoxicity against mouse L1210 cells at 10 ug/ml; format: functional, cell-based
[2] = Inhibition of CaCl2-microtubule depolymerization at 50 uM by spectrophotometry
KB = assay: Cytotoxicity against human KB cells at 10 ug/ml; format: functional, cell-based

Compound | Activity [1] | Activity (L1210) | Activity [2] | Activity (KB)
CC(=O)O[C@H]1C(=O)[C@@]2(C)[C@H]([C@H](OC(=O)c3ccccc3)[C@]3(O)C[C@H](OC(=O)[C@H](O)[C@@H](NC(=O)c4ccccc4)c4ccccc4)C(C)=C1C3(C)C)[C@]1(OC(C)=O)CO[C@@H]1C[C@@H]2O | Active |  |  | 
C=C1[C@@H](OC(=O)C[C@H](c2ccccc2)N(C)C)CC[C@@]2(C)[C@@H](OC(C)=O)[C@H](OC(C)=O)C3=C(C)[C@]4(O)C[C@@H]([C@@H](OC(C)=O)[C@H]12)[C@@]3(C)CO4 |  | inactive | Active | inactive
C=C1[C@@H](OC(=O)C[C@H](c2ccccc2)N(C)C)C[C@H](OC(C)=O)[C@@]2(C)[C@@H](OC(C)=O)[C@H](OC(C)=O)[C@]3(O)[C@@]4(C)CO[C@]3(C)C(=O)C[C@H]4[C@@H](OC(C)=O)[C@H]12 |  | inactive |  | inactive
